Measured values from patent US12440493B2, “Combination therapy for treating cancer comprising substituted piperazines” (Eli Lilly and Company, priority 2020, dated 2025).
Several values for one entry are separate records, joined by “and”; a condition that tells them apart may be missing. Equal values may be shown once.

Experiments:
[1] = tested on: IDH1(R132H) primary human AML cells; assay: AML clearance in peripheral blood (flow cytometry, % hCD33+hCD45+ of total white cells), human AML PDx models in NSG mice; format: in vivo; settings: for AML clearance (% hCD33 + hCD45+ (of total white cells)): 2 mg/kg Cytarabine, IP, (QDx5, rest2)X2) 14 days off)x2, each value one animal, 2 mg/kg
Procedure: (§1) Compounds and Formulation. For in vivo studies, each test article is prepared at an appropriate concentration with vehicle. […] Compound A is prepared fresh at the appropriate concentrations with vehicle every 7 days and stored at 4° C. between doses. […] Cytarabine is prepared fresh weekly by dilution with sterile saline from stock solution of Cytarabine (injection 20 mg/mL, (Pfizer injectables')). Azacitidine (Sigma, Lot #MKBR7212) is formulated in sterile water and is prepared fresh daily immediately before dosing. In vivo human AML PDx models. […] Two models are used in the studies: […] As needed, splenocytes from tumor-bearing mice are used to propagate and expand the models, as described. Each test article is prepared as described above at an appropriate concentration with vehicle to give animals the doses tested in this study at a dosing volume of 10 μL/gram body weight. Mice receiving Compound A (PO, QD) are treated at the indicated doses for the duration of the study. The combination agents are dosed as follows: […] Treated mice are assessed in comparison to vehicle treated and naïve (non-tumor bearing) control mice. Body weight is recorded twice per week. […] AML PDx model propagation. […] Spleens are processed and splenocytes isolated as described below. Two hundred μL per subject of the splenocyte prep is injected IV (intravenous, tail vein) into recipient NSG mice. […] Once engraftment is confirmed, the mice are monitored biweekly until ready to be put on study. […] Submandibular blood is collected. Spleen/Splenocyte Processing and Prep. After excision, a spleen is weighed, and […] is placed in a standard sterile 15 mL polypropylene conical tube containing PBS, and placed on ice. […] The spleen is placed in ice cold sterile PBS in a 15 mL collection tube. The spleen is removed from the collection tube and placed in a 100 micron 50 mL conical tube cell strainer (BD Falcon #352360). The spleen is processed by gentle rubbing of the spleen tissue against the surface of the cell strainer with the end of a 5 mL syringe plunger in a circular motion. The surface of the strainer is rinsed with 10 mL room temperature sterile DPBS (HyClone SH30028) 3 times during the process. […] The cell pellet is collected by centrifugation (300×g) and washed three times with 30 mL sterile DPBS. The cells are counted and resuspended in DPBS at the desired implant concentration. Bone Marrow Collection. […] Flow cytometry analysis of human white cells. Submandibular blood samples from in vivo studies are collected. Fluor-conjugated antibody stains are added according to the manufacturer's instructions (anti-human CD33-PE (clone WM53, BD Cat #555450), anti-human CD14-APC (clone MφpP9, BD Cat #340436), anti-human CD15-V450 (clone HI98, BD Cat #561584), anti-human CD117-BV421 (clone YB5.B8, BD Cat #562434), anti-human […]7 (clone ICRF44, BD Cat #557754), anti-human […]7 (clone HI30, BD Cat #557748), and anti-human CD3-FITC (clone SK7, BD Cat #340542)). The samples are incubated for 30 minutes at room temperature, protected from light. After the incubation, 1.5 mL 1×BD Lyse/Fix (37° C., (BD #558049)) is added to each sample and incubated for 12 minutes at room temperature. The tubes are centrifuged at 300×g for 7 minutes. BD Lyse/Fix solution is aspirated and the cell pellet washed with stain/wash buffer 3 times (1 wash step consisted of: pellet resuspended in 3 mL stain/wash buffer, centrifuged at 300×g, aspirated wash). Fixed cells are then resuspended in 300 to 400 μL stain/wash buffer. Samples are analyzed on a Becton Dickinson FACSVerse Flow cytometer (Cat #651155 Serial #Z6511550447) using standard flow cytometry principles and techniques. Samples are analyzed on the same day as they are stained and fixed. Population gating and data analysis of percent population are performed in the FACSuite software on the FACSVerse cytometer. Percent population values from the data analysis are plotted in Graphpad Prism or in JMP13. […]

[2] = tested on: IDH1(R132H) primary human AML cells; assay: AML cell differentiation in blood (flow cytometry, % hCD33+hCD11b+ of hCD45+ cells), human AML PDx models in NSG mice; format: in vivo; settings: for AML cell differentiation (% hCD33 + hCD11b+ (of hCD45+ cells)): 2 mg/kg Cytarabine, IP, (QDx5, rest2)X2) 14 days off)x2, each value one animal, 2 mg/kg
Procedure: as §1

2-HG production = assay: Plasma 2-HG inhibition (LC-MS metabolite analysis in plasma of AML PDx model); format: in vivo, human
[3] = tested on: IDH1(R132H) primary human AML cells; assay: Bone marrow AML clearance (flow cytometry), human AML PDx models in NSG mice; format: in vivo
Procedure: as §1

[4] = 2 mg/kg Cytarabine, IP, (QDx5, rest2)X2) 14 days off)x2, each line one animal
[5] = 2 mg/kg Cytarabine, IP, (QDx5, rest2)X2) 14 days off) × 2, each line one animal

Nc1ccn([C@@H]2O[C@H](CO)[C@@H](O)[C@@H]2O)c(=O)n1 [Cytarabine, reference compound]
AML clearance (% hCD33 + hCD45+ (of total white cells)) ([1]; Treatment day 18): 8.04% and 3.22% and 3.24% and 8.64% and 3.23% and 3.50% and 4.40%
AML clearance (% hCD33 + hCD45+ (of total white cells)) ([1]; Treatment day 34): 9.07% and 2.02% and 3.5% and 2.54% and 1.79% and 2.04%
AML clearance (% hCD33 + hCD45+ (of total white cells)) ([1]; Treatment day 47): 8.25% and 8.31% and 5.29% and 4.92% and 2.29% and 4.71% and 5.51%
AML clearance (% hCD33 + hCD45+ (of total white cells)) ([1]; Treatment day 61): 17.63% and 29.86% and 14.99% and 42.59% and 15.49% and 29.04% and 29.58%
AML clearance (% hCD33 + hCD45+ (of total white cells)) ([1]; Treatment day 75): 56.57% and 60.59% and 22.85% and 59.75% and 36.77% and 44.17%
AML clearance (% hCD33 + hCD45+ (of total white cells)) ([1]; Treatment day 89): 76.67% and 78.11% and 57.04% and 81.53% and 79.57% and 68.92%
AML clearance (% hCD33 + hCD45+ (of total white cells)) ([1]; Treatment day −3): 21.32% and 14.8% and 13.68% and 21.94% and 21.7% and 20% and 17.15%
% peripheral blood AML cells (treatment group value) ([1]; day 47, group C: cytarabine (2 mg/kg), vehicle 86%): 5.2%
AML cell differentiation (% hCD33 + hCD11b+ (of hCD45+ cells)) ([2]; Treatment day 18): 15.93% and 18.69% and 13.00% and 11.66% and 14.07% and 10.70% and 11.81%
AML cell differentiation (% hCD33 + hCD11b+ (of hCD45+ cells)) ([2]; Treatment day 34): 37.13% and 33.07% and 31.02% and 31.17% and 33.03% and 37.1%
AML cell differentiation (% hCD33 + hCD11b+ (of hCD45+ cells)) ([2]; Treatment day 47): 8.3% and 7.84% and 7.69% and 5.82% and 16.79% and 5.09% and 7.21%
AML cell differentiation (% hCD33 + hCD11b+ (of hCD45+ cells)) ([2]; Treatment day 61): 9.5% and 8.65% and 9.29% and 6.94% and 10.6% and 7.78% and 8.46%
AML cell differentiation (% hCD33 + hCD11b+ (of hCD45+ cells)) ([2]; Treatment day 75): 5.65% and 7.65% and 11.09% and 11.48% and 10% and 10.46%
AML cell differentiation (% hCD33 + hCD11b+ (of hCD45+ cells)) ([2]; Treatment day 89): 8.75% and 10.17% and 8.87% and 18.02% and 12.49% and 11.08%
AML cell differentiation (% hCD33 + hCD11b+ (of hCD45+ cells)) ([2]; Treatment day −3): 16.46% and 20.43% and 14.95% and 8.62% and 13.39% and 10.09% and 12.17%
% AML cell differentiation (treatment group value) ([2]; day 47, group C: cytarabine (2 mg/kg), vehicle 10%): 8%
% Inhibition of 2-HG (plasma) (2-HG production; [4]): 78.844% and 68.361% and 88.982% and 79.768% and 71.68% and 76.685% and 68.331%
Naive Subtracted 2-HG (plasma) (2-HG production; [4]): 2.348 µM and 3.512 µM and 1.223 µM and 2.246 µM and 3.143 µM and 2.588 µM and 3.515 µM
Plasma 2-HG (2-HG production; [4]): 3.256 µM and 4.42 µM and 2.131 µM and 3.154 µM and 4.051 µM and 3.496 µM and 4.423 µM
% plasma 2-HG (treatment group value) (2-HG production; group C: cytarabine (2 mg/kg), vehicle 100%): 24%
Bone Marrow AML Clearance: % hCD33 + hCD45+ (% of white cells) [3, 5]: 64.38% and 75.48% and 39.66% and 80.32%
Bone Marrow AML Clearance: % hCD45+ (% of white cells) [3, 5]: 71.88% and 78.06% and 44.54% and 80.75%
% human AML cells in bone marrow (of white cells; lower = more clearance) ([3]; group C: cytarabine (2 mg/kg), vehicle 94%): 63%
